Earlier results as cited in patent US6740653B2, “Shelf life extension of microemulsions containing active aza biocide” (ISP Investments Inc., priority 2001, dated 2004).

Which soluble in water does the source give for Cc1ccc(/N=C/N(C)/C=N/c2ccc(C)cc2C)c(C)c1 [Amitraz] here?
The soluble in water was 1 mg/L.
